Reference: patent US20250163047A1, “HETEROCYCLIC COMPOUNDS, COMPOSITIONS THEREOF, AND METHODS OF TREATMENT THEREWITH” (BeiGene, Ltd., priority 2022, published 2025)

How the values were obtained:
[1] = molecular target: T1, Cbl (aa49-434) (Homo sapiens, UniProt P22681); assay: Co-expressed Cbl with BirA biochemical assay (CBL/E2-Ub binding, HTRF); conditions: 0.6 nM Cbl co-expressed with BirA, read-out: co-express CBL/E2-Ub-binding assay IC50
T1 construct: Cbl (aa49-434, in-house); made in house
T1 sequence (P22681 49-434): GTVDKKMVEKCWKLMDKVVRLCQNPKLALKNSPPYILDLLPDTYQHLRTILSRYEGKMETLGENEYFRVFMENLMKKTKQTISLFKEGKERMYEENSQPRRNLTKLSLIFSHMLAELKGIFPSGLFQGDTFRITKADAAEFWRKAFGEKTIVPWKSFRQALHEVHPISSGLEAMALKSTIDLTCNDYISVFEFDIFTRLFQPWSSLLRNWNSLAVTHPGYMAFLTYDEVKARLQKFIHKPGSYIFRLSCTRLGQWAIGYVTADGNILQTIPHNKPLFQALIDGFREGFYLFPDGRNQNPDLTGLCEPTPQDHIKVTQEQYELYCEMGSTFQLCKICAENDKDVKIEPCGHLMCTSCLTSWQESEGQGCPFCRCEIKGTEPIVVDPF
Source text: (§1) The assay in the absence of a Cbl-b/Cbl inhibitor, where phosphorylation of Cbl-b/Cbl by the Src kinase allows UbcH5B-Ub to bind to Cbl-b/Cbl and brings the Bodipy-Fluorescein tagged ubiquitin in proximity to the streptavidin-terbium bound to the N-terminal biotinylated Avi-tagged Cbl-b/Cbl. […] The lack of a FRET signal indicates Cbl-b/Cbl is inhibited by the Cbl-b/Cbl inhibitor.

[2] = molecular target: T2, Cbl-b (aa36-427) (Homo sapiens, UniProt Q13191); assay: Co-expressed Cbl-b with BirA biochemical assay (CBLB/E2-Ub binding, HTRF); conditions: 0.6 nM Cbl-b co-expressed with BirA, HTRF; read-out: co-express CBLB/E2-Ub-binding assay IC50
T2 construct: Cbl-b (aa36-427, in-house); made in house
Source text: as §1

T2 sequence (Q13191 36-427): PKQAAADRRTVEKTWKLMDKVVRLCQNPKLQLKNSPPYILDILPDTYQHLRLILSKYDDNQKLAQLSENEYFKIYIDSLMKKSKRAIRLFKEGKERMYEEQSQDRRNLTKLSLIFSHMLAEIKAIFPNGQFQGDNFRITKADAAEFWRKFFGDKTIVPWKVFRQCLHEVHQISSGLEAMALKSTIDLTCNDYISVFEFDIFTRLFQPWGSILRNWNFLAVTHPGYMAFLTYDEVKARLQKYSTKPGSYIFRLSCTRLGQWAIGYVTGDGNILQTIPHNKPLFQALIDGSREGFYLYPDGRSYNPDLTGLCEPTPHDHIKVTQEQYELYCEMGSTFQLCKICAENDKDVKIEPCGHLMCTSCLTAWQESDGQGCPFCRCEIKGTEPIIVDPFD

| IC50 [1] [nM] | IC50 [2] [nM] | Structure (SMILES) |
| --- | --- | --- |
| 2.7 | 0.8 | C[C@@H]1CN(Cc2cc(C(=O)Nc3cccc([C@]4(Cc5nncn5C)C[C@@H](C#N)C4)c3)c3nccn3c2)CC[C@@H]1F [Compound A48, N-(3-((1r,3R)-3-cyano-1-((4-methyl-4H-1,2,4-triazol-3-yl)methyl)cyclobutyl)phenyl)-6-(((3R,4S)-4-fluoro-3-methylpiperidin-1-yl)methyl)imidazo[1,2-a]pyridine-8-carboxamide] |
| 1.9 | 0.9 | Cn1cnnc1[C@]1(c2cncc(NC(=O)c3cc(CNCC4CCC4)c4ccsc4n3)c2)C[C@H](C)C1 [Compound B15, 4-(((cyclobutylmethyl)amino)methyl)-N-(5-((1s, 3s)-3-methyl-1-(4-methyl-4H-1,2,4-triazol-3-yl)cyclobutyl)pyridin-3-yl)thieno[2,3-b]pyridine-6-carboxamide] |
| 1.3 | 1.4 | C[C@H]1CCCN(Cc2cc(C(=O)Nc3cccc([C@]4(Cc5nncn5C)C[C@@H](C#N)C4)c3)nc3c2NCC3(C)C)C1 [Compound C12, 3,3-dimethyl-7-{[(3S)-3-methylpiperidin-1-yl]methyl}-N-{3-[(1r, 3r)-3-cyano-1-[(4-methyl-1,2,4-triazol-3-yl)methyl]cyclobutyl]phenyl}-1H,2H-pyrrolo[3,2-b]pyridine-5-carboxamide] |
| 2.9 | 0.9 | Cn1cnnc1[C@]1(c2cccc(NC(=O)c3cc(CNCC4CCCC4)cn4c(Cl)cnc34)c2)C[C@H](C)C1 [Compound A68, 3-chloro-6-(((cyclopentylmethyl)amino)methyl)-N-(3-((1s, 3s)-3-methyl-1-(4-methyl-4H-1,2,4-triazol-3-yl)cyclobutyl)phenyl)imidazo[1,2-a]pyridine-8-carboxamide] |
| 14.4 | 4.4 | C[C@H]1CCCN(Cc2cc(C(=O)Nc3cccc(C4(Cc5nncn5C)COC4)c3)c3nc(F)cn3c2)C1 [Compound A7, (S)-2-fluoro-N-(3-(3-((4-methyl-4H-1,2,4-triazol-3-yl)methyl)oxetan-3-yl)phenyl)-6-((3-methylpiperidin-1-yl)methyl)imidazo[1,2-a]pyridine-8-carboxamide] |
| 2.1 | 0.7 | CC(C)CNCc1cc(C(=O)Nc2cccc([C@]3(c4nncn4C)C[C@@H](C)C3)c2)nc2cc[nH]c12 [Compound B1, 7-((isobutylamino)methyl)-N-(3-((1s, 3s)-3-methyl-1-(4-methyl-4H-1,2,4-triazol-3-yl)cyclobutyl)phenyl)-1H-pyrrolo[3,2-b]pyridine-5-carboxamide] |
| 89.1 | 30.5 | C[C@H]1CCCN(Cc2cc(C(=O)Nc3cccc([C@]4(c5nncn5C)C[C@@H](C)C4)c3)nn3cccc23)C1 [Compound B13, 4-{[(3S)-3-methylpiperidin-1-yl]methyl}-N-{3-[(1r, 3s)-3-methyl-1-(4-methyl-1,2,4-triazol-3-yl)cyclobutyl]phenyl}pyrrolo[1,2-b]pyridazine-2-carboxamide] |
| 3.3 | 1.4 | Cn1cnnc1[C@]1(c2cccc(NC(=O)c3cc(CNCC4CCC4)c4c(n3)C(C)(C)CN4)c2)C[C@H](CC#N)C1 [Compound C30, N-(3-((1s, 3s)-3-(cyanomethyl)-1-(4-methyl-4H-1,2,4-triazol-3-yl)cyclobutyl)phenyl)-7-(((cyclobutylmethyl)amino)methyl)-3,3-dimethyl-2,3-dihydro-1H-pyrrolo[3,2-b]pyridine-5-carboxamide] |
| 10.1 | 1.3 | C[C@H](NCc1cc(C(=O)Nc2cccc([C@]3(c4nncn4C)C[C@@H](CC#N)C3)c2)nc2c1CCC2(F)F)C1CC1 [Compound C43, N-(3-((1s,3R)-3-(cyanomethyl)-1-(4-methyl-4H-1,2,4-triazol-3-yl)cyclobutyl)phenyl)-4-((((S)-1-cyclopropylethyl)amino)methyl)-7,7-difluoro-6,7-dihydro-5H-cyclopenta[b]pyridine-2-carboxamide] |
| 0.9 | 0.6 | Cn1cnnc1[C@]1(c2cncc(NC(=O)c3cc(CNCC4CCC4)cn4c(F)cnc34)c2)C[C@H](C)C1 [Compound A71, 6-{[(cyclobutylmethyl)amino]methyl}-3-fluoro-N-{5-[(1r, 3s)-3-methyl-1-(4-methyl-1,2,4-triazol-3-yl)cyclobutyl]pyridin-3-yl}imidazo[1,2-a]pyridine-8-carboxamide] |
| 12 | 1.5 | Cn1cnnc1[C@]1(c2cccc(NC(=O)c3cc(CNC4(C)CC4)cn4ncnc34)c2)C[C@H](C)C1 [Compound A87, N-(3-((1s, 3s)-3-methyl-1-(4-methyl-4H-1,2,4-triazol-3-yl)cyclobutyl)phenyl)-6-(((1-methylcyclopropyl)amino)methyl)-[1,2,4]triazolo[1,5-a]pyridine-8-carboxamide] |
| 24.3 | 12.8 | Cn1cnnc1CC1(c2cccc(NC(=O)c3cc(CNC4CCCCC4)cn4ccnc34)c2)COC1 [Compound A9, 6-((cyclohexylamino)methyl)-N-(3-(3-((4-methyl-4H-1,2,4-triazol-3-yl)methyl)oxetan-3-yl)phenyl)imidazo[1,2-a]pyridine-8-carboxamide] |
| 6.3 | 1.3 | Cn1cnnc1[C@]1(c2cccc(NC(=O)c3cc(CNCC4CCCC4)cn4ccnc34)c2)C[C@H](CC#N)C1 [Compound A26, N-(3-((1s, 3s)-3-(cyanomethyl)-1-(4-methyl-4H-1,2,4-triazol-3-yl)cyclobutyl)phenyl)-6-(((cyclopentylmethyl)amino)methyl)imidazo[1,2-a]pyridine-8-carboxamide] |
| 3.4 | 0.9 | Cn1cnnc1[C@]1(c2cccc(NC(=O)c3cc(CNCC4CCC4)c4c(n3)C(C)(C)CC4)c2)C[C@H](C)C1 [Compound C57, 4-(((cyclobutylmethyl)amino)methyl)-7,7-dimethyl-N-(3-((1s, 3s)-3-methyl-1-(4-methyl-4H-1,2,4-triazol-3-yl)cyclobutyl)phenyl)-6,7-dihydro-5H-cyclopenta[b]pyridine-2-carboxamide] |
| 7 | 1.5 | C[C@H](NCc1cc(C(=O)Nc2cncc([C@]3(c4nncn4C)C[C@@H](C)C3)c2)nc2c1CCC2(F)F)C1CCC1 [Compound C41, 4-({[(1S)-1-cyclobutylethyl]amino}methyl)-7,7-difluoro-N-{5-[(1r, 3s)-3-methyl-1-(4-methyl-1,2,4-triazol-3-yl)cyclobutyl]pyridin-3-yl}-5H,6H-cyclopenta[b]pyridine-2-carboxamide] |
| 20 | 4.4 | Cn1cnnc1[C@]1(c2cncc(NC(=O)c3cc(CNC4(C)CC4)cn4ncnc34)c2)C[C@H](C)C1 [Compound A88, N-(5-((1s, 3s)-3-methyl-1-(4-methyl-4H-1,2,4-triazol-3-yl)cyclobutyl)pyridin-3-yl)-6-(((1-methylcyclopropyl)amino)methyl)-[1,2,4]triazolo[1,5-a]pyridine-8-carboxamide] |
| 26.5 | 3 | C[C@H]1CCCN(Cc2cc(C(=O)Nc3cccc([C@]4(c5nncn5C)C[C@@H](CC#N)C4)c3)n3ncc(F)c3c2)C1 [Compound A20, 3-fluoro-5-{[(3S)-3-methylpiperidin-1-yl]methyl}-N-{3-[(1s, 3s)-3-(cyanomethyl)-1-(4-methyl-1,2,4-triazol-3-yl)cyclobutyl]phenyl}pyrazolo[1,5-a]pyridine-7-carboxamide] |
| 2.3 | 1.2 | CC(C)CNCc1cc(C(=O)Nc2cncc([C@]3(c4nncn4C)C[C@@H](C)C3)c2)c2nccn2c1 [Compound A78, 6-((isobutylamino)methyl)-N-(5-((1s, 3s)-3-methyl-1-(4-methyl-4H-1,2,4-triazol-3-yl)cyclobutyl)pyridin-3-yl)imidazo[1,2-a]pyridine-8-carboxamide] |
| 1.2 | 0.7 | C[C@@H]1CN(Cc2cc(C(=O)Nc3cccc([C@]4(c5nncn5C)C[C@@H](CC#N)C4)c3)nc3c2NCC3(C)C)CC[C@@H]1F [Compound C47, 7-{[(3R,4S)-4-fluoro-3-methylpiperidin-1-yl]methyl}-3,3-dimethyl-N-{3-[(1s, 3s)-3-(cyanomethyl)-1-(4-methyl-1,2,4-triazol-3-yl)cyclobutyl]phenyl}-1H,2H-pyrrolo[3,2-b]pyridine-5-carboxamide] |
| 79 | 6.9 | Cn1cnnc1[C@]1(c2cccc(NC(=O)c3cc(CNCC4CCC(F)(F)CC4)c4c(n3)C(C)(C)CO4)c2)C[C@H](CC#N)C1 [Compound C20, N-(3-((1s, 3s)-3-(cyanomethyl)-1-(4-methyl-4H-1,2,4-triazol-3-yl)cyclobutyl)phenyl)-7-((((4,4-difluorocyclohexyl)methyl)amino)methyl)-3,3-dimethyl-2,3-dihydrofuro[3,2-b]pyridine-5-carboxamide] |
| 5.9 | 0.9 | Cn1cnnc1[C@]1(c2cccc(NC(=O)c3cc(CNC4(C)CC4)cn4ccnc34)c2)C[C@H](C)C1 [Compound A16, N-(3-((1s, 3s)-3-methyl-1-(4-methyl-4H-1,2,4-triazol-3-yl)cyclobutyl)phenyl)-6-(((1-methylcyclopropyl)amino)methyl)imidazo[1,2-a]pyridine-8-carboxamide] |
